Experimental data: PMC6941124 (International Journal of Molecular Sciences, 2019)
Positions count from the first letter of the chain named.

Experiments:
CK1ε = CK1ε (Homo sapiens, UniProt P49674); assay: in vitro kinase assay, CK1ε; type: biochemical; conditions: 10 µM inhibitor, initial screening
[1] = molecular target: CK1δ wild type (GST-CK1δ) (Homo sapiens, UniProt P48730); assay: in vitro kinase assay, GST-CK1δ wild type; type: biochemical; conditions: for Kinase activity of CK1δ in presence of inhibitor: 10 µM inhibitor, initial screening; for IC50: dilution series 0.005−10 µM, mean ± standard error, triplicate
Description: (§1) Overexpression and purification of GST-CK1δ fusion proteins, either wild type or mutant, were performed as described previously.
(§2) Each kinase assay reaction was performed in kinase buffer (25 mM Tris-HCl (pH 7.5), 10 μM ATP, 10 mM MgCl2, 100 μM EDTA) in presence of purified GST-CK1δ kinase as source of enzyme (either wild type or mutant), an assay-specific substrate (α-casein, GST-p53^1−64, or GST-β-catenin^1−181), and radiolabeled ATP (2 μCi [γ-^32P]-ATP). For performing Michaelis–Menten analysis increasing substrate concentrations were used (α-casein: 0.39−25 μM; GST-p53^1−64: 0.09−1.87 μM; GST-β-catenin^1−181: 0.07−1.32 μM). For biological evaluation of small molecule inhibitors (SMIs), each inhibitor compound was either tested at 10 μM concentration for initial screening or by using a dilution series (0.005−10 µM) for determination of IC50 values. DMSO was used as control. Reactions were incubated for 30 min at 30 °C and reactions were stopped using 5x SDS-loading buffer (250 mM Tris-HCl [pH 6.8], 25% (v/v) β-mercaptoethanol (MSH), 50% (v/v) glycerol, 10% (w/v) SDS, 0.5% (w/v) bromphenol blue). Subsequently, samples were separated by SDS-PAGE using 12.5% acrylamide gels, stained with Coomassie, and phosphorylated substrates were visualized on X-ray film. Incorporation of radiolabeled phosphate was quantified by scintillation counting of Coomassie-stained substrate bands. Defined dilutions of the reaction master mix were counted as well in order to convert results obtained as counts per minute (CPM) to units of transferred phosphate in pmol/min. Michaelis–Menten analysis was performed using GraphPad Prism 6 (GraphPad Software, San Diego, CA, USA).

parental HeLa cells = assay: MTT viability assay, parental HeLa cells; type: cell-based; conditions: 25 μM, 48 h
Description: Parental HeLa cells, as well as HeLa CSNK1D knock-out cells (CK1δ^−/−) (generated by CRISP/Cas9 technology and provided by EDIGENE, Beijing, China), were cultured in Dulbecco’s Modified Eagle medium (DMEM). HCT-116 and HT-29 colon cancer cells were cultured in McCoy’s 5A medium whereas SW480 and SW620 colon cancer cells were cultured in Leibovitz’s L-15 medium. All media were supplemented with 10% (v/v) fetal bovine serum (FBS), 100 units/mL penicillin, and 100 µg/mL streptomycin. DMEM-based medium for the culture of HeLa CSNK1D knock-out cells was additionally supplemented with 1 μg/mL puromycin. Cell cultures were maintained at 37 °C in a humidified atmosphere containing 5% CO2. Cells were transfected using Effectene transfection reagent (Qiagen, Hilden, Germany) according to the manufacturer’s instructions. […]
For performing MTT viability assays, cells were seeded in a 96-well plate (5 × 10^4 cells/well for HeLa cells (parental, CK1δ^−/−, or CK1δ^−/− cells stably transfected with wild type or mutant CK1δ), HCT-116, and HT-29 cells or 7.5 × 10^4 cell/well for SW480 and SW620 cells). […] Absorbance was measured at 570 nm with TriStar^2 LB942 Microplate Reader (Berthold Technologies, Bad Wildbad, Germany) and data analysis was performed using GraphPad Prism 6 (GraphPad Software, San Diego, CA, USA).

CK1δ T67S = molecular target: T1, CK1δ T67S (Homo sapiens, UniProt P48730, T67S); assay: in vitro kinase assay, CK1δ mutant T67S; type: biochemical; conditions: 10 µM inhibitor, Figure 5a
T1 sequence (P48730 1-415 T67S): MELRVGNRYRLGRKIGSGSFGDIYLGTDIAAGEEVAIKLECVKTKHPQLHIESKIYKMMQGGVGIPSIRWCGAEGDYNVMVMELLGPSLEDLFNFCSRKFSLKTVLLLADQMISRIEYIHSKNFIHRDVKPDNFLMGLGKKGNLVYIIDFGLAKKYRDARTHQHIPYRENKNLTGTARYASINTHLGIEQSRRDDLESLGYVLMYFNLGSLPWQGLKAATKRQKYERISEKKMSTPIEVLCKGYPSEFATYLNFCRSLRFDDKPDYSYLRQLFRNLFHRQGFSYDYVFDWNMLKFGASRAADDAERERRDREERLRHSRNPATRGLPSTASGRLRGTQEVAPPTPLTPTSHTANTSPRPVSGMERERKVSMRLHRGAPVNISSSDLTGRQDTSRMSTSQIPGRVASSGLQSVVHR
Description: as §1, §2

HeLa CK1δ−/− cells = assay: MTT viability assay, HeLa CK1δ−/− cells; type: cell-based; conditions: 25 μM, 48 h
Description: (§3) Parental HeLa cells, as well as HeLa CSNK1D knock-out cells (CK1δ^−/−) (generated by CRISP/Cas9 technology and provided by EDIGENE, Beijing, China), were cultured in Dulbecco’s Modified Eagle medium (DMEM). HCT-116 and HT-29 colon cancer cells were cultured in McCoy’s 5A medium whereas SW480 and SW620 colon cancer cells were cultured in Leibovitz’s L-15 medium. All media were supplemented with 10% (v/v) fetal bovine serum (FBS), 100 units/mL penicillin, and 100 µg/mL streptomycin. DMEM-based medium for the culture of HeLa CSNK1D knock-out cells was additionally supplemented with 1 μg/mL puromycin. Cell cultures were maintained at 37 °C in a humidified atmosphere containing 5% CO2. Cells were transfected using Effectene transfection reagent (Qiagen, Hilden, Germany) according to the manufacturer’s instructions. For selection of stably transfected clones, transfected cells were grown in selective medium, containing 0.6 mg/mL of G-418 (Calbiochem-Merck Millipore, Darmstadt, Germany).
(§4) For performing MTT viability assays, cells were seeded in a 96-well plate (5 × 10^4 cells/well for HeLa cells (parental, CK1δ^−/−, or CK1δ^−/− cells stably transfected with wild type or mutant CK1δ), HCT-116, and HT-29 cells or 7.5 × 10^4 cell/well for SW480 and SW620 cells). After 24 h, old medium was replaced with fresh medium containing either the small molecule of interest or DMSO as control. After 48 h of treatment, 10 μL MTT (5 mg/mL) was added and incubated at 37 °C for 4 h. The medium was then gently removed and 100 μL of acidic isopropanol was added (90% (v/v) isopropanol, 10% (v/v) 1 N HCl). Cell culture plates were then shaken for 30 min at room temperature. Absorbance was measured at 570 nm with TriStar^2 LB942 Microplate Reader (Berthold Technologies, Bad Wildbad, Germany) and data analysis was performed using GraphPad Prism 6 (GraphPad Software, San Diego, CA, USA).

CK1α = CK1α (Homo sapiens, UniProt P48729); assay: in vitro kinase assay, CK1α; type: biochemical; conditions: 10 µM inhibitor, initial screening
CK1δ R127Q = molecular target: T2, CK1δ R127Q (Homo sapiens, UniProt P48730, R127Q); assay: in vitro kinase assay, CK1δ mutant R127Q; type: biochemical; conditions: 10 µM inhibitor, Figure 5b
T2 sequence (P48730 1-415 R127Q): T1 sequence (P48730 1-415 T67S) with S67T, R127Q
Description: as §1, §2

CK1γ = assay: in vitro kinase assay, CK1γ; type: biochemical; conditions: 10 µM inhibitor, initial screening
[2] = tested on: HeLa CK1δ+/+ cells (HeLa CK1δ−/− stably transfected with CK1δ); assay: MTT viability assay, HeLa CK1δ+/+ cells; type: cell-based; conditions: 25 μM, 48 h
Description: as §3, §4

HT-29 colon cancer cells = assay: MTT viability assay, HT-29; type: cell-based; conditions: 10 µM, 48 h, initial screening (Figure 10a)
Description: as §3, §4

SW480 colon cancer cells = assay: MTT viability assay, SW480; type: cell-based, human; conditions: 10 µM, 48 h, initial screening (Figure 10a)
Description: as §3, §4

SW620 colon cancer cells = assay: MTT viability assay, SW620; type: cell-based, human; conditions: 48 h
Description: as §3, §4

CK1ε, sequence (P49674 whole entry): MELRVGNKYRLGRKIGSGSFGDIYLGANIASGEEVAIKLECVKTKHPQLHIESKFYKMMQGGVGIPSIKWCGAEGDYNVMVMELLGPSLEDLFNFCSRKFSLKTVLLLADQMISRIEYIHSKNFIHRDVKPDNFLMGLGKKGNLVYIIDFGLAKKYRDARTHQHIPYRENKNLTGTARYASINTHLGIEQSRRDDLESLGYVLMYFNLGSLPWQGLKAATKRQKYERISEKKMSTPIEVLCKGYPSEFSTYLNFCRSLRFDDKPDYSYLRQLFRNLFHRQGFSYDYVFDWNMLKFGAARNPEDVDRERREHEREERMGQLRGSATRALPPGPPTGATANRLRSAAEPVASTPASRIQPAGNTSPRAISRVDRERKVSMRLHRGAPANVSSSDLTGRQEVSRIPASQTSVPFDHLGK
CK1δ wild type (GST-CK1δ), sequence (P48730 whole entry, the tested form may be a part): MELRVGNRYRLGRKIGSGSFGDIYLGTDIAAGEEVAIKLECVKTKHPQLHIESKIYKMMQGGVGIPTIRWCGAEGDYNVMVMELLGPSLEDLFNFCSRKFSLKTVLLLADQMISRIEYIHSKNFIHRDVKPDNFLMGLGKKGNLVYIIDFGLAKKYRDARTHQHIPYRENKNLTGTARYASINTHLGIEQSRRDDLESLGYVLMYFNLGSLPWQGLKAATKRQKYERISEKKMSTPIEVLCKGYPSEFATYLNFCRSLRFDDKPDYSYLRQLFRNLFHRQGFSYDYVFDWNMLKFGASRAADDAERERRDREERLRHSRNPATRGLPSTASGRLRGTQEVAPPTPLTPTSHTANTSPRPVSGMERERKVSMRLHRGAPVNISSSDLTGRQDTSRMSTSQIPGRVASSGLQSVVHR
CK1α, sequence (P48729 whole entry): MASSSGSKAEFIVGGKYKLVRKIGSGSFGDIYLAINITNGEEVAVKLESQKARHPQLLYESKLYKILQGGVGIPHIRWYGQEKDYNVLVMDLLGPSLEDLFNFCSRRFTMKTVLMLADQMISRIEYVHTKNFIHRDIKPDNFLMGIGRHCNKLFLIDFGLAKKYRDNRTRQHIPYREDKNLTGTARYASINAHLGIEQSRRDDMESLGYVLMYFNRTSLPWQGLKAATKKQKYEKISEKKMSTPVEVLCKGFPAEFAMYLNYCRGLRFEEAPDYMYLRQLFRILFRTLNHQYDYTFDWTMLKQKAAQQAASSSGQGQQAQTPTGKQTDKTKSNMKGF

| Kinase activity of CK1ε in presence of inhibitor (CK1ε) | Kinase activity of CK1δ in presence of inhibitor [1] | IC50 [1] | Inhibition of CK1δ T67S compared to wild type CK1δ (CK1δ T67S) | Kinase activity of CK1α in presence of inhibitor (CK1α) | Inhibition of CK1δ R127Q kinase activity compared to wild type CK1δ (CK1δ R127Q) | Kinase activity of CK1γ in presence of inhibitor (CK1γ) | Reduction of CK1α activity (CK1α) | Compound | Effects on cell viability of parental HeLa cells, compared with compounds 18 and 19 (parental HeLa cells) | Effects on cell viability of CK1δ−/− cells compared to parental and/or CK1δ+/+ cells (HeLa CK1δ−/− cells) | Cell viability of CK1δ-expressing cells (HeLa parental or CK1δ+/+) compared to CK1δ-deficient cells (HeLa CK1δ−/−) [2] | Reduction of cell viability, HT-29 (HT-29 colon cancer cells) | Reduction of cell viability, SW480 (SW480 colon cancer cells) | Reduction of cell viability, SW620 (SW620 colon cancer cells; 10 µM, initial screening (Figure 10a)) | Dose-dependent effects on SW620 cell viability (SW620 colon cancer cells; 0.625 to 20 µM, MTT (Figure S2)) |
| --- | --- | --- | --- | --- | --- | --- | --- | --- | --- | --- | --- | --- | --- | --- | --- |
| strongly inhibited | strongly inhibited | 2000 nM | slightly stronger | not affected | significantly stronger inhibited | not affected | – | O=C(CSc1nccc(=O)n1-c1ccccc1)Nc1nc2ccc(C(F)(F)F)cc2s1 [Compound 16, 2-((3-Phenyl-4-oxo-3,4-dihydropyrimidin-2-yl)thio)-N-(6-(trifluoromethyl)benzo-[d]thiazol-2-yl)acetamide] | less pronounced | not reduced | – | – | – | – | – |
| strongly inhibited | strongly inhibited | – | slightly stronger | not affected | – | not affected | – | COc1ccc(OC)c(-n2c(SCC(=O)Nc3nc4ccc(C(F)(F)F)cc4s3)nccc2=O)c1 [Compound 17, 2-((3-(2,5-Dimethoxyphenyl)-4-oxo-3,4-dihydropyrimidin-2-yl)thio)-N-(6-(trifluoromethyl)benzo[d]thiazol-2-yl)acetamide] | less pronounced | not reduced | – | – | – | – | – |
| strongly inhibited | strongly inhibited | – | – | not affected | – | not affected | – | COc1cc(OC)cc(-n2c(SCC(=O)Nc3nc4ccc(C(F)(F)F)cc4s3)nccc2=O)c1 [Compound 19, 2-((3-(3,5-Dimethoxyphenyl)-4-oxo-3,4-dihydropyrimidin-2-yl)thio)-N-(6-(trifluoromethyl)benzo[d]thiazol-2-yl)acetamide] | – | – | more reduced | – | – | – | – |
| strongly inhibited | strongly inhibited | 120 nM | – | – | – | not affected | at least 50% | O=C(CSc1nccc(=O)n1Cc1ccc(C(F)(F)F)cc1)Nc1nc2ccc(C(F)(F)F)cc2s1 [Compound 21, 2-((3-(4-Trifluoromethylbenzyl)-4-oxo-3,4-dihydropyrimidin-2-yl)thio)-N-(6-(trifluoromethyl)benzo[d]thiazol-2-yl)acetamide] | – | – | – | minor changes | minor changes | ~50% | only visible at the highest concentrations tested |
